≈ marks a conversion by molar mass, not a printed value. Where two headings read alike, the source gives them in different places.
Assays:
P. aeruginosa ATCC 27853 = assay: MIC assay, CLSI broth microdilution, P. aeruginosa ATCC 27853 (APAE001); type: cell-based; conditions: Pseudomonas aeruginosa, read-out: MIC APAE001
Protocol: (§1) Minimum inhibitory concentrations (MIC) were determined by reference Clinical and Laboratory Standards Institute (CLSI) broth microdilution methods per M7-A7 [2006]. Quality control ranges utilizing E. coli ATCC 25922, P. aeruginosa ATCC 27853 and S. aureus ATCC 29213, and interpretive criteria for comparator agents were as published in CLSI M100-S17 [2007]. Briefly, serial two-fold dilutions of the test compounds were prepared at 2× concentration in Mueller Hinton Broth. The compound dilutions were mixed in 96-well assay plates in a 1:1 ratio with bacterial inoculum. The inoculum was prepared by suspension of a colony from an agar plate that was prepared the previous day. Bacteria were suspended in sterile saline and added to each assay plate to obtain a final concentration of 5×10^5 CFU/mL. The plates were incubated at 35° C. for 20 hours in ambient air.

E. coli ATCC 25922 = assay: MIC assay, CLSI broth microdilution, E. coli ATCC 25922 (AECO001); type: cell-based; conditions: for MIC: Escherichia coli, read-out: MIC AECO001; for MIC AECO001: Table 3, E. coli ATCC25922
Protocol: as §1
These MIC assays were conducted following the same protocol as set forth in Example 110. As shown, substituted sisomicin derivatives with groups other than methyl at the 6′-position have improved activity against strains expressing the AAC6′-modifying enzymes.

[1] = APAE001 is ATCC27853, 35° C., 20 hours
[2] = AECO001 is ATCC25922, 35° C., 20 hours

SMILES	MIC (P. aeruginosa ATCC 27853; ATCC27853, 20 h) [µg/mL]	MIC (E. coli ATCC 25922; ATCC25922, 20 h) [µg/mL]	MIC (P. aeruginosa ATCC 27853; [1]) [µg/mL]	MIC (E. coli ATCC 25922; [2]) [µg/mL]	MIC AECO001 (E. coli ATCC 25922) [µg/mL]
CN[C@@H]1[C@@H](O)[C@@H](O[C@@H]2[C@@H](O)[C@H](O[C@H]3OC(CNCCO)=CC[C@H]3N)[C@@H](N)C[C@H]2NC(=O)[C@H](O)CCN)OC[C@]1(C)O [Example 2, 6′-(2-Hydroxy-ethyl)-1-(4-amino-2(R)-hydroxy-butyryl)-sisomicin]	1 to 16 (≈ 1.69 to 27 µM)	1 to 16 (≈ 1.69 to 27 µM)			
CN[C@@H]1[C@@H](O)[C@@H](O[C@@H]2[C@@H](O)[C@H](O[C@H]3OC(CNCC(O)CO)=CC[C@H]3N)[C@@H](N)C[C@H]2NC(=O)[C@H](O)CCN)OC[C@]1(C)O (stereo partly drawn) [Example 3, 6′-(2-Hydroxy-propanol)-1-(4-amino-2(R)-hydroxy-butyryl)-sisomicin]	> 16	1 to 16 (≈ 1.61 to 25.7 µM)			
CN[C@@H]1[C@@H](O)[C@@H](O[C@@H]2[C@@H](O)[C@H](O[C@H]3OC(CNCC4CCNCC4)=CC[C@H]3N)[C@@H](N)C[C@H]2NC(=O)[C@H](O)CCN)OC[C@]1(C)O [Example 4, 6′-(Methyl-piperidin-4-yl)-1-(4-amino-2(R)-hydroxy-butyryl)-sisomicin]	1 to 16 (≈ 1.55 to 24.8 µM)	1 to 16 (≈ 1.55 to 24.8 µM)			
CN[C@@H]1[C@@H](O)[C@@H](O[C@@H]2[C@@H](O)[C@H](O[C@H]3OC(CNCC4CC4)=CC[C@H]3N)[C@@H](N)C[C@H]2NC(=O)[C@H](O)CCN)OC[C@]1(C)O [Example 5, 6′-(Methyl-cyclopropyl)-1-(4-amino-2(R)-hydroxy-butyryl)-sisomicin]	1 to 16 (≈ 1.66 to 26.5 µM)	< 1			
CN[C@@H]1[C@@H](O)[C@@H](O[C@@H]2[C@@H](O)[C@H](O[C@H]3OC(CNCCCN)=CC[C@H]3N)[C@@H](N)C[C@H]2NC(=O)[C@H](O)CCN)OC[C@]1(C)O [Example 6, 6′-(3-Amino-propyl)-1-(4-amino-2(R)-hydroxy-butyryl)-sisomicin]	1 to 16 (≈ 1.65 to 26.4 µM)	1 to 16 (≈ 1.65 to 26.4 µM)			
CN[C@@H]1[C@@H](O)[C@@H](O[C@@H]2[C@@H](O)[C@H](O[C@H]3OC(CNCC4CC4)=CC[C@H]3N)[C@@H](N)C[C@H]2NC(=O)[C@H](O)CN)OC[C@]1(C)O [Example 7, 6′-Methyl-cyclopropyl-1-(3-amino-2(R)-hydroxy-propionyl)-sisomicin]	1 to 16 (≈ 1.7 to 27.2 µM)	< 1			
CN[C@@H]1[C@@H](O)[C@@H](O[C@@H]2[C@@H](O)[C@H](O[C@H]3OC(CNCC4CCNCC4)=CC[C@H]3N)[C@@H](N)C[C@H]2NC(=O)[C@H](O)CN)OC[C@]1(C)O [Example 8, 6′-Methyl-piperidinyl-1-(3-amino-2(R)-hydroxy-propionyl)-sisomicin]	1 to 16 (≈ 1.58 to 25.3 µM)	< 1			
CN[C@@H]1[C@@H](O)[C@@H](O[C@@H]2[C@@H](O)[C@H](O[C@H]3OC(CNCCO)=CC[C@H]3N)[C@@H](N)C[C@H]2NC(=O)[C@H](O)CN)OC[C@]1(C)O [Example 9, 6′-(2-Hydroxy-ethyl)-1-(3-amino-2(R)-hydroxy-propionyl)-sisomicin]	> 16	1 to 16 (≈ 1.73 to 27.6 µM)			
CN[C@@H]1[C@@H](O)[C@@H](O[C@@H]2[C@@H](O)[C@H](O[C@H]3OC(CNCC(O)CO)=CC[C@H]3N)[C@@H](N)C[C@H]2NC(=O)[C@H](O)CN)OC[C@]1(C)O (stereo partly drawn) [Example 10, 6′-(2-Hydroxy-propanol)-1-(3-amino-2(R)-hydroxy-propionyl)-sisomicin]	1 to 16 (≈ 1.64 to 26.3 µM)	1 to 16 (≈ 1.64 to 26.3 µM)			
CN[C@@H]1[C@@H](O)[C@@H](O[C@@H]2[C@@H](O)[C@H](O[C@H]3OC(CNCCCN)=CC[C@H]3N)[C@@H](N)C[C@H]2NC(=O)[C@H](O)CN)OC[C@]1(C)O [Example 11, 6′-(3-Amino-propyl)-1-(3-amino-2(R)-hydroxy-propionyl)-sisomicin]	1 to 16 (≈ 1.69 to 27 µM)	< 1			
CN[C@@H]1[C@@H](O)[C@@H](O[C@@H]2[C@@H](O)[C@H](O[C@H]3OC(CNCC4CCNCC4)=CC[C@H]3N)[C@@H](N)C[C@H]2NC(=O)[C@@H](O)CCN)OC[C@]1(C)O [Example 12, 6′-(Methyl-piperidin-4-yl)-1-(4-amino-2(S)-hydroxy-butyryl)-sisomicin]			1 to 16 (≈ 1.55 to 24.8 µM)	1 to 16 (≈ 1.55 to 24.8 µM)	1 (≈ 1.55 µM)
CN[C@@H]1[C@@H](O)[C@@H](O[C@@H]2[C@@H](O)[C@H](O[C@H]3OC(CNCC4CC4)=CC[C@H]3N)[C@@H](N)C[C@H]2NC(=O)[C@@H](O)CN)OC[C@]1(C)O [Example 13, 6′-(Methyl-cyclopropyl)-1-(3-amino-2(S)-hydroxy-propionyl)-sisomicin]			> 16	1 to 16 (≈ 1.7 to 27.2 µM)	1 (≈ 1.7 µM)
CN[C@@H]1[C@@H](O)[C@@H](O[C@@H]2[C@@H](O)[C@H](O[C@H]3OC(CNCC(O)CO)=CC[C@H]3N)[C@@H](N)C[C@H]2NC(=O)[C@@H](O)CN)OC[C@]1(C)O (stereo partly drawn) [Example 14, 6′-(2-Hydroxy-propanol)-1-(3-amino-2(S)-hydroxy-propionyl)-sisomicin]	1 to 16 (≈ 1.64 to 26.3 µM)	1 to 16 (≈ 1.64 to 26.3 µM)			

Source: patent US11117915B2, “Antibacterial aminoglycoside analogs” (Cipla USA, Inc., priority 2007, dated 2021)
